Source: ChEMBL document CHEMBL1201862, “PubChem BioAssay data set” (2004)
The source made the active and inactive calls.

Key:
[1] = cytotoxicity toward NIH3T3 fibroblasts, dose response, counter-screen, cell-based, ATP luminescence, mouse fibroblasts (AID 2010); assay type: functional;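 further: cells exposed to compound for about 90 hours before reading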
[2] = inhibitors of intracellular T. cruzi replication, confirmation, NIH3T3 host cells, beta-gal luminescence (AID 2044); assay type: functional, cell-based;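 further: intracellular parasites grown in NIH/3T3 mouse fibroblasts as host cells; luminescent beta-galactosidase reporter signal from transgenic T. cruzi replicating inside host cells; inhibitors lower the luminescence signal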
[3] = molecular target: Cytochrome P450 2C9 (Homo sapiens, UniProt P11712)
Sequence of Cytochrome P450 2C9 (P11712 whole entry): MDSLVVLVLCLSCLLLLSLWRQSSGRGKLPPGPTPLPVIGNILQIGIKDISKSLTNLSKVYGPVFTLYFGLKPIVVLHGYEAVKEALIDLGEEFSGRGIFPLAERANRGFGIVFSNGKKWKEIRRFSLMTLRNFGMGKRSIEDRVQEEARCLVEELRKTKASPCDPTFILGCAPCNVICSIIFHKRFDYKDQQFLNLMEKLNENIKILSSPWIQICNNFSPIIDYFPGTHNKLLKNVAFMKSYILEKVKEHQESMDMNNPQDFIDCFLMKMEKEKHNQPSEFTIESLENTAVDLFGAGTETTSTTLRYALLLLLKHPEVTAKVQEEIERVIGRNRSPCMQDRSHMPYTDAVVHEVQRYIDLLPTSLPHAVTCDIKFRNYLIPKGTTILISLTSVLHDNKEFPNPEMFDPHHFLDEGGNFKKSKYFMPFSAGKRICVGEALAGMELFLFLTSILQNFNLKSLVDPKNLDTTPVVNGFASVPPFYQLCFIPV

[4] = molecular target: Cytochrome P450 2C19 (Homo sapiens, UniProt P33261); assay: Cytochrome panel assay with activity outcomes. Panel member name: p450-cyp2c19 Compounds with AC50 equal or less than 10 uM are considered active; assay type: functional
Sequence of Cytochrome P450 2C19 (P33261 whole entry): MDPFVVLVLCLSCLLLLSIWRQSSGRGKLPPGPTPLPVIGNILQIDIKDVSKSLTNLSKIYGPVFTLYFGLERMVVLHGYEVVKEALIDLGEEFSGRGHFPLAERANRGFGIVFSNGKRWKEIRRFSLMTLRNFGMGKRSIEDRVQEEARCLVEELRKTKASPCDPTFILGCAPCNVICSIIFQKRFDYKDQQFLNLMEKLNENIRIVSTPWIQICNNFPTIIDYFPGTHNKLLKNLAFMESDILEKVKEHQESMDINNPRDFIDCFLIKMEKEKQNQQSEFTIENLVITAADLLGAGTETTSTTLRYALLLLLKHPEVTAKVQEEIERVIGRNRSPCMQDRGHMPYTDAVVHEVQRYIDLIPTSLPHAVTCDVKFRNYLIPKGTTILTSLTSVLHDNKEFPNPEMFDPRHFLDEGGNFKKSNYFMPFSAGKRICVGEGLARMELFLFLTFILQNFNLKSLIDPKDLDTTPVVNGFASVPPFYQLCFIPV

## O=[N+]([O-])c1nn(-c2ccccc2)[n+]([O-])c1NCCc1ccccc1
[1]
  EC50: > 60 µM (inconclusive)
[2]
  EC50: 0.478 µM (active)

## COCC1CCCCN1Cc1c[nH]nc1-c1ccc2cc(OC)ccc2c1 (stereo not given)
[1]
  EC50: > 60 µM (not active)
[2]
  EC50: 0.679 µM (active)

## CSc1nsc(SC)c1C(=O)Nc1ccc(C)cc1
[3]
  AC50: 15.8 µM (inconclusive)

## O=C(CN1C(=O)COc2ccccc21)N(Cc1cccnc1)Cc1cccc(F)c1
[1]
  EC50: > 60 µM (not active)
[2]
  EC50: 0.557 µM (active)

## Cc1ccc(C)c(N2CCN(CC(=O)Nc3ccc([N+](=O)[O-])cc3C(=O)Nc3ccccc3F)CC2)c1
[1]
  EC50: > 60 µM (not active)
[2]
  EC50: 1.19 µM (active)

## CCOc1ccc(N(CC(=O)NCCC2=CCCCC2)S(=O)(=O)c2ccccc2)cc1
[1]
  EC50: 10.6 µM (active)
[2]
  EC50: 2.58 µM (active)

## CCS(=O)(=O)c1ccc2c(c1)N(S(=O)(=O)c1ccccc1)CC(C(=O)O)O2 (stereo not given)
[3]
  AC50: 12.6 µM (inconclusive)

## CCN1CCN(CCC(=O)Nc2cccc(OC)c2)CC1.Cl
[4]
  AC50: inconclusive

## CCN(CC)CCN(C(=O)c1ccc(S(=O)(=O)N(C)C2CCCCC2)cc1)c1nc2ccc(OC)cc2s1
[1]
  EC50: > 60 µM (not active)
[2]
  EC50: 0.105 µM (active)

## Cc1cc(C)c(S(=O)(=O)c2ccc(F)cc2C)c(Cl)n1
[1]
  EC50: > 60 µM (not active)
[2]
  EC50: 0.867 µM (active)

## Cc1ccc2c(c1)N(CC(=O)N1CCCCC1c1cccnc1)C(=O)CO2 (stereo not given)
[1]
  EC50: > 60 µM (not active)
[2]
  EC50: 0.482 µM (active)

## O=C(O)C/C(=C\c1ccco1)C(=O)O
[4]
  AC50: inconclusive

## O=C1CN(c2nc(-c3cccnc3)nc3scc(-c4ccccc4)c23)CCN1
[1]
  EC50: 59.3 µM (active)
[2]
  EC50: 4.67 µM (active)

## C=CC1=C[C@@H](O)C2OC2C12OCCCO2 (stereo not given in full)
[4]
  AC50: inconclusive

## Clc1ccc(-c2nnc(-c3cccc4ccccc34)o2)cc1Cl
[4]
  AC50: inconclusive

## COc1ccc(Cn2c(-c3ccc(Br)cc3)c[n+]3ccccc23)cc1
[1]
  EC50: > 30 µM (not active)
[2]
  EC50: 0.822 µM (active)

## Cc1cc2nc(SCCOC(=O)Nc3ccc(Cl)cc3)nc(C)c2cc1C
[3]
  AC50: 2.82 µM (inconclusive)

## c1ccc(-c2nc3ccccc3o2)nc1
[3]
  AC50: 39.8 µM (inconclusive)

## CCN(C(=O)c1cc2c(O)nc3ccc(C)cc3c2s1)c1cccc(C)c1
[1]
  EC50: > 60 µM (inconclusive)
[2]
  EC50: 0.708 µM (active)

## Cc1ccc(S(=O)ON2CCC(C(=O)O)(c3ccccc3)CC2)cc1 (stereo not given)
[4]
  AC50: inconclusive

## O=C(CCCn1cnc([N+](=O)[O-])n1)Nc1ccc(Cl)cc1Cl
[1]
  EC50: > 60 µM (inconclusive)
[2]
  EC50: 0.132 µM (active)

## Cc1ccc(-n2nnnc2Sc2nc([N+](=O)[O-])nn2C)cc1C
[3]
  AC50: 1.58 µM (inconclusive)

## COc1cccc(NC(=S)N2CCn3cccc3C2c2cccnc2)c1 (stereo not given)
[1]
  EC50: > 60 µM (not active)
[2]
  EC50: 1.12 µM (active)

## COC1=CC(=O)O[C@@H](/C=C\c2ccccc2)C1
[4]; read-out: AC50
  AC50: 5.01 µM (inconclusive)

## FC(F)(F)c1cccc(CN2CCC(c3cc(-c4cccs4)[nH]n3)CC2)c1
[1]
  EC50: 14.6 µM (active)
[2]
  EC50: 2.31 µM (active)

## Fc1ccc(CN(C2=NCCN2)c2c(Cl)cccc2Cl)cc1
[3]
  AC50: 39.8 µM (inconclusive)

## Cc1cc(C(C)(C)C)cc(CNC2CCCCC2)c1O
[3]
  AC50: 7.94 µM (inconclusive)

## C[C@@H]1O[C@@H](O)[C@@H](O)[C@H](O)[C@H]1O
[4]
  AC50: inconclusive

## CC1=CC(=C(C#N)c2nc3ccccc3s2)C=C(C)N1Cc1ccco1
[1]
  EC50: > 30 µM (not active)
[2]
  EC50: 1.75 µM (active)

## CCOC(=O)c1c(NC(=O)C2=C(C)N=C(S)NC2c2ccccc2C(F)(F)F)sc(C)c1C (stereo not given)
[1]
  EC50: > 60 µM (not active)
[2]
  EC50: 2.4 µM (active)

## N#Cc1c(C(F)(F)F)cc(-c2ccco2)nc1SCc1ccncc1
[1]
  EC50: 4.74 µM (active)
[2]
  EC50: 0.975 µM (active)

## CCN1C(=O)C(CC(=O)Nc2ccc(OC)cc2)N(Cc2cccnc2)C1=S (stereo not given)
[3]
  AC50: 10 µM (inconclusive)

## CCC(=O)Nc1ccc(C(=O)CSc2nnc(-c3ccc(O)cc3)n2CC2CCCO2)cc1OC (stereo not given)
[3]
  AC50: 15.8 µM (inconclusive)
